These results are taken from PMC7023430, “4-Aminobenzoic Acid Derivatives: Converting Folate Precursor to Antimicrobial and Cytotoxic Agents” (Biomolecules, 2019).

As a reminder, the IC50 is the point on the concentration scale where inhibition reaches its midpoint.

In brackets after ≈: the same amount, converted by molar mass. Like-named read-outs stand apart in the source and are kept apart here.

The subject of data set [1] is Mycobacterium kansasii 235/80. The data set is described as follows: Antimycobacterial micromethod in Šula's medium, M. kansasii 235/80. The format is cell-based.
Another data set has as its system Candida krusei E28. In words: Antifungal microdilution broth method, C. krusei. The format is cell-based. The settings on record: Pichia kudriavzevii. In outline: (§1)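 MICs were scored by eye in duplicate runs, accepted when the two differed by no more than one twofold step. Medium was RPMI-1640 (L-glutamine, 2% glucose) buffered with MOPS at pH 7.0, with DMSO-dissolved compounds serially halved per modified EUCAST protocol.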
For orientation: Broth dilution looks for growth in wells or tubes with falling amounts of substance.

The subject of another data set is Candida glabrata 20/I. The data set is described as follows: Antifungal microdilution broth method, C. glabrata. The format is cell-based. Particulars: Nakaseomyces glabratus. In outline: as §1
The test system of another data set is eight fungal strains. In words: Antifungal activity. Type of data set: cell-based. The settings on record: statement over the fungal panel; time not stated. On the procedure:
The antifungal properties were evaluated against five yeast strains, namely: Candida albicans ATCC 44859, Candida tropicalis 156, Candida krusei […], Candida glabrata 20/I, Trichosporon […] 1188 and three strains of filamentous fungi: Aspergillus fumigatus 231, Lichtheimia corymbifera 272, and Trichophyton interdigitale 445. A microdilution broth method was performed according to EUCAST II, III instructions with slight modifications. Briefly, tested compounds were dissolved in DMSO and diluted in a twofold manner with RPMI-1640 medium with L-glutamine, supplemented with 2% glucose (w/v) and buffered to pH 7.0 with 3 morpholinopropane-1-sulfonic acid (all components were purchased from Sigma-Aldrich, USA). […] Positive controls consisted of test microbe solely, while negative controls consisted of medium and DMSO. Internal quality control was included too. Visual inspection was used for MIC endpoints evaluation. The experiments were conducted in duplicates. For the results to be valid, the difference in MIC determined from two parallel measurements must not be greater than one step on the dilution scale. PABA and triazole antimycotic drug fluconazole were involved as the reference compounds.

Data set [2] relates to M. kansasii 6509/96 (clinical isolate). The data set is described as follows: Antimycobacterial micromethod in Šula's medium, M. kansasii 6509/96. The format is cell-based. Particulars: Mycobacterium kansasii.
Another data set has as its system Candida tropicalis 156. The data set is described as follows: Antifungal microdilution broth method, C. tropicalis. Type of data set: cell-based. In outline: as §1
Data set [3] has as its system Mycobacterium tuberculosis H37Rv (331/88). The data set is described as follows: Antimycobacterial micromethod in Šula's medium, M. tuberculosis. Type of data set: cell-based.
The subject of data set [4] is ESBL-positive Klebsiella pneumoniae J 14368/08.
Data set [5] has as its system Enterococcus faecalis ATCC 29212, CCM 4224. In words: Antibacterial microdilution broth method, E. faecalis. The settings on record: Enterococcus faecalis. Type of data set: cell-based.
The test system of another data set is phytopathogenic fungi. Also on record: method as in PMID 29283262. Particulars: read-out: IC50 of PABA, phytopathogenic fungi; cited from earlier work.
Data set [6] concerns Lichtheimia corymbifera 272. In words: Antifungal microdilution broth method, L. corymbifera. The format is cell-based. In outline: as §1
For data set [7], the system named is Mycobacterium avium 330/88. The data set is described as follows: Antimycobacterial micromethod in Šula's medium, M. avium. Type of data set: cell-based.
For data set [8], the system named is methicillin-resistant Staphylococcus aureus ATCC 43300, CCM 4750 (MRSA). In words: Antibacterial microdilution broth method, MRSA. Type of data set: cell-based. The settings on record: Staphylococcus aureus.
A further data set deals with Trichosporon asahii 1188. In words: Antifungal microdilution broth method, T. asahii. The format is cell-based. The method in brief: as §1
In data set [9] the test system is Staphylococcus epidermidis H 6966/08. In words: Antibacterial microdilution broth method, S. epidermidis. Type of data set: cell-based. Particulars: Staphylococcus epidermidis, H6966/08, S. epidermidis.
Data set [10] concerns Escherichia coli ATCC 25922, CCM 3954. The data set is described as follows: Antibacterial microdilution broth method, E. coli. The format is cell-based. The settings on record: Escherichia coli.
The subject of data set [11] is Pseudomonas aeruginosa ATCC 27853, CCM 3955. In words: Antibacterial microdilution broth method, P. aeruginosa. Particulars: Pseudomonas aeruginosa, P. aeruginosa. Type of data set: cell-based.
Data set [12] relates to E. coli, Listeria monocytogenes and Salmonella enteritidis. On the set-up: method as in PMID 7730199. Particulars: strains distinct from this study; cited from earlier work.
The subject of data set [13] is Staphylococcus aureus ATCC 29213, CCM 4223. In words: Antibacterial microdilution broth method, S. aureus. Type of data set: cell-based.
Data set [14] deals with Klebsiella pneumoniae D 11750/08.
Data set [15] has as its system Aspergillus fumigatus 231. In words: Antifungal microdilution broth method, A. fumigatus. Type of data set: cell-based. The method in brief:
as §1

Data set [16] relates to four Gram-positive and four Gram-negative strains. The data set is described as follows: Antibacterial activity. Type of data set: cell-based. Particulars: statement over the bacterial panel; time not stated; read-out: MIC, antibacterial activity.
Data set [17] deals with Trichophyton interdigitale 445. In words: Antifungal microdilution broth method, T. interdigitale. Type of data set: cell-based. The method in brief: as §1
For data set [18], the system named is Candida albicans ATCC 44859. In words: Antifungal microdilution broth method, C. albicans. The format is cell-based. The method in brief: as §1
Another data set deals with staphylococci. The settings on record: according to EUCAST ref 33; cited from earlier work.

`Nc1ccc(C(=O)O)cc1` [PABA 1, 4-aminobenzoic acid]: the MIC in data set [1] (235/80, 168 h, 7 days incubation at 37 °C, read-out: MIC M. kansasii 235/80 7 d) was 1000 µM (≈ 137 µg/mL); in [1] (235/80, 336 h, 14 days incubation at 37 °C, read-out: MIC M. kansasii 235/80 14 d), above 1000 µM; in [1] (235/80, 504 h, 21 days incubation at 37 °C, read-out: MIC M. kansasii 235/80 21 d) it was above 1000 µM; with Candida krusei E28 (24 h, read-out: MIC CK 24 h), above 500 µM; with Candida krusei E28 (48 h, read-out: MIC CK 48 h) it was above 500 µM; with Candida glabrata 20/I (24 h, read-out: MIC CG 24 h) it was above 500 µM. In addition, the MIC is above 500 µM in the data set with Candida glabrata 20/I (48 h, read-out: MIC CG 48 h); above 500 µM against eight fungal strains; 1000 µM (≈ 137 µg/mL) in data set [2] (168 h, 7 days incubation at 37 °C, read-out: MIC M. kansasii 6509/96 7 d); 1000 µM (≈ 137 µg/mL) in [2] (336 h, 14 days incubation at 37 °C, read-out: MIC M. kansasii 6509/96 14 d); 1000 µM (≈ 137 µg/mL) in data set [2] (504 h, 21 days incubation at 37 °C, read-out: MIC M. kansasii 6509/96 21 d); above 500 µM in the data set on Candida tropicalis 156 (24 h, read-out: MIC CT 24 h). Further, the MIC was above 500 µM with Candida tropicalis 156 (48 h, read-out: MIC CT 48 h); above 1000 µM in data set [3] (336 h, 14 days incubation at 37 °C, read-out: MIC Mtb. 331/88 14 d); above 1000 µM in [3] (504 h, 21 days incubation at 37 °C, read-out: MIC Mtb. 331/88 21 d); above 500 µM in data set [5] (24 h incubation, read-out: MIC EF 24 h); above 500 µM in [5] (48 h incubation, read-out: MIC EF 48 h); above 500 µM in [6] (24 h, read-out: MIC LC 24 h). Besides, the MIC is above 500 µM in data set [6] (48 h, read-out: MIC LC 48 h); above 1000 µM in data set [7] (330/88, 336 h, 14 days incubation at 37 °C, read-out: MIC M. avium 330/88 14 d); above 1000 µM in data set [7] (330/88, 504 h, 21 days incubation at 37 °C, read-out: MIC M. avium 330/88 21 d); above 500 µM in data set [8] (24 h incubation, read-out: MIC MRSA 24 h); above 500 µM in [8] (48 h incubation, read-out: MIC MRSA 48 h); above 500 µM with Trichosporon asahii 1188 (24 h, read-out: MIC TA 24 h). Besides, the MIC in the data set on Trichosporon asahii 1188 (48 h, read-out: MIC TA 48 h) was above 500 µM; in data set [9] (24 h incubation, read-out: MIC SE 24 h) it was above 500 µM; in data set [9] (48 h incubation, read-out: MIC SE 48 h), above 500 µM; in data set [10] (24 h incubation, read-out: MIC EC 24 h), above 500 µM; in data set [10] (48 h incubation, read-out: MIC EC 48 h), above 500 µM; in data set [11] (24 h incubation, read-out: MIC PA 24 h), above 500 µM. Further, the MIC is above 500 µM in data set [11] (48 h incubation, read-out: MIC PA 48 h); above 500 µM in [13] (24 h incubation, read-out: MIC SA 24 h); above 500 µM in [13] (48 h incubation, read-out: MIC SA 48 h); above 500 µM in [15] (24 h, read-out: MIC AF 24 h); above 500 µM in data set [15] (48 h, read-out: MIC AF 48 h); above 500 µM in [16]. For the same compound, the MIC was above 500 µM in [17] (72 h, read-out: MIC TI 72 h); above 500 µM in data set [17] (120 h, read-out: MIC TI 120 h); above 500 µM in data set [18] (ATCC44859, 24 h, read-out: MIC CA 24 h); above 500 µM in data set [18] (ATCC44859, 48 h, read-out: MIC CA 48 h). In data set [4] (24 h), the “MIC KP-E 24 h” value is listed as above 500 µM. Further, the “MIC KP-E 48 h” value in data set [4] (48 h) is above 500 µM. The IC50 in the data set with phytopathogenic fungi is 1000 to 3000 µM. In addition, the “MIC of PABA” value in data set [12] is 9000 to 24000 µM. In addition, the “MIC KP 24 h” value in data set [14] (24 h) is reported as above 500 µM. Also, the “MIC KP 48 h” value in data set [14] (48 h) was above 500 µM.

Regarding `O=C1CN(/N=C/c2ccc([N+](=O)[O-])o2)C(=O)N1` [nitrofurantoin], the breakpoint for staphylococci with staphylococci is 32 to 64 µg/mL.
